# Reference: US20240174684A1, “INHIBITORS OF cGAS ACTIVITY AS THERAPEUTIC AGENTS” (BELLBROOK LABS, LLC, priority 2021, published 2024)
# Where two headings read alike, the source gives them in different places.
# Assays:
# [1] = system: MDCK cells expressing human MDR1 (P-glycoprotein); test: MDCK-MDR1 permeability A→B; assay type: in vitro ADME, Canine
# Description: ADME studies: Compound A and the compounds of the disclosure were tested for aqueous solubility (KSOL), metabolic stability (human and mouse […]) and permeability (Caco-2 and/or MDR1-MDCK cells) to provide an initial indication of oral bioavailability.
# The favorable physicochemical properties are reflected in promising results in in vitro ADME tests. […] Metabolic stability, which was routinely measured with mouse and human hepatocytes, is outstanding, with t, greater than 2 hours for all of the compounds of the disclosure in which it has been measured. Cell permeability was measured using MDCK cells expressing human MDR1 (P-glycoprotein) to assess passive permeability as well as active transport out of the cell. […] Numerous compounds in Table 1 meet these permeability criteria, which is consistent with their design for TPSA <140 Å^2 and increased lipophilicity.
# The MDCK-MDR1 permeability A ->B is shown in Table 2 below, where A represents 5-10 cm/s×10^−6; B represents 1-5 cm/s×10^−6; and C represents <1 cm/ss×10^−6. The metabolic stability half time, in both mouse and human hepatocytes, is also shown in Table 2 below, where A′ represents 100-200 minutes; B′ represents 200-300 minutes; and C′ represents >300 minutes.
# cGAS = cGAS (Homo sapiens, UniProt Q8N884); test: Transcreener cGAS enzymatic assay (FP); assay type: biochemical
# Description: Structural, biochemical and biophysical analysis and selectivity profiling: Potency and MOA studies, including Mn^2+ sensitivity, were performed using the Transcreener cGAS enzymatic assay, which is manufactured at BellBrook Labs (Fitchburg, Wisconsin, USA). This homogenous cGAS enzymatic assay was developed with fluorescence polarization (FP) and time-resolved Forster resonance energy transfer (TR-FRET) readouts, as described in International Patent Publication WO 2020/142729, incorporated by reference herein in its entirety. Plates are read on a PHERAstar FSX multimode reader (BMG). The compounds of the disclosure were tested for inhibition of cGAS ([…]) using this cGAS enzymatic assay under standard conditions (100 μM ATP and GTP, 62.5 nM bp ISD, 60 minute reactions), high ATP and GTP (1 mM) to mimic physiological conditions, in the presence of 200 μM MnCl2, and with mouse cGAS under standard conditions.
# The IC50 values for FP under standard and under physiological conditions were determined for several exemplary compounds of the invention. The relative activities for FP Standard IC50 are shown in Table 2 below, where A represents <50 nM; B represents 50-100 nM; C represents 100-200 nM; D represents 200 nM-1μM; and E represents 1-10 μM. For the relative activities for FP Physiological IC50, A′ represents <200 nM; B′ represents 200-500 nM; C′ represents 500 nM-1μM; D′ represents 1-5 μM; and E′ represents >5 μM.
# [2] = system: IFNβ production in THP-1 cells; test: IFNβ ELISA in THP-1 cells; assay type: cell-based, human; details: Homo sapiens; THP-1 cells
# From the text: Cellular assays: The human monocyte cell line THP-1 and human primary PBMCs were used to evaluate the cellular activity of compounds with good biochemical potency. These cells produce a robust cGAS/STING-dependent type I IFN response when stimulated with dsDNA and other pathogen-associated molecular patterns, which was detected using a standard ELISA for IFNβ (R&D Systems). The TBK1 inhibitor, BX-795, which acts downstream of cGAS/STING, was used as a probe.
# CETSA was also used to confirm that the compounds are binding to cGAS in cells; THP-1 cells are used for this analysis. Compounds were tested in dose response mode by incubating with cells for 1.5 hours at 37° C., followed by pelleting and re-suspending in PBS, heating to 51.5° C. for 3 min and cooling to room temp. Cells were then lysed, debris, including denatured cGAS, was pelleted and the supernatant was analyzed for soluble cGAS by Western Blot using anti-cGAS primary Ab (Cell Signaling). Band intensity was analyzed using Image J software. Stimulation with cGAMP directly activates STING, circumventing cGAS; this was used to determine if compounds had effects on downstream components of cGAS/STING signaling. The IFN-6 ELISA was used as the primary measure of cellular potency and selectivity (Table 3) and used the reporter gene assays for assessing off-target activity with other pattern recognition receptors.
# The ICso values for IFNB ELISA stimulated with THP-1, PBMC, DNA, and cGAMP were determined for several exemplary compounds of the invention, and are provided in Table 3 where A represents <1 μM; B represents 1-2.5 μM; C represents 2.5-10 μM; D represents 10-20 μM; and E represents >20 μM.
# [3] = high ATP and GTP (1 mM) to mimic physiological conditions, read-out: IC50 FP Physiological
# [4] = standard conditions: 100 μM ATP and GTP, 62.5 nM bp ISD, 60 minute reactions, read-out: IC50 FP Standard
# cGAS, sequence (Q8N884 whole entry): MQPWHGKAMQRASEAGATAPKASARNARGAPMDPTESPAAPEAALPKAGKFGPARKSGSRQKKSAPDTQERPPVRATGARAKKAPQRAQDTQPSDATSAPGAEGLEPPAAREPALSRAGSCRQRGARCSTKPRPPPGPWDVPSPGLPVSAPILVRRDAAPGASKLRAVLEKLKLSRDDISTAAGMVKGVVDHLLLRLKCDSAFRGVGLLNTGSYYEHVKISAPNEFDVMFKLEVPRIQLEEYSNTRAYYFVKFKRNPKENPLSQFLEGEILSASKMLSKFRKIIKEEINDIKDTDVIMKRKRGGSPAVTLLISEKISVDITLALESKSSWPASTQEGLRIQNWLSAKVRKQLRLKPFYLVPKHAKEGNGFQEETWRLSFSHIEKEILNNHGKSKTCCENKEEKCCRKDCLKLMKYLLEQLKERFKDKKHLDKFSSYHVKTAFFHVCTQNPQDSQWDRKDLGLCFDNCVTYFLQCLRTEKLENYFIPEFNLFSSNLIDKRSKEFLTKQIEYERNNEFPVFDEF
SMILES,MDCK-MDR Permeability A→B [1],IC50 (cGAS; [3]),IC50 (cGAS; [4]),IC50 [2]
"Cc1nc(N2C[C@@H](CC(=O)Nc3ccc(F)cc3)C[C@H]2C(=O)O)c2oc3ccccc3c2n1 [Compound 18, (2S,4R)-4-(2-((4-fluorophenyl)amino)-2-oxoethyl)-1-(2-methylbenzofuro[3,2-d]pyrimidin-4-yl)pyrrolidine-2-carboxylic acid]",C (C represents <1 cm/ss×10^−6),1000 to 5000 nM,200 to 1000 nM,> 20 µM
"Cc1nc(N2C[C@@H](CC(=O)Nc3cccc4[nH]ncc34)C[C@H]2C(=O)O)c2oc3ccccc3c2n1 [Compound 28, (28.4R)-4-(2-((1H-indazol-4-yl)amino)-2-oxoethyl)-1-(2-methylbenzofuro[3,2-d]pyrimidin-4-yl)pyrrolidine-2-carboxylic acid]",C (C represents <1 cm/ss×10^−6),1000 to 5000 nM,200 to 1000 nM,> 20 µM
"Cc1nc(N2C[C@@H](CC(=O)Nc3ccc4nc[nH]c4c3)C[C@H]2C(=O)O)c2oc3ccccc3c2n1 [Compound 29, (2S,4R)-4-(2-((1H-benzo[d]imidazol-6-yl)amino)-2-oxoethyl)-1-(2-methylbenzofuro[3,2-d]pyrimidin-4-yl)pyrrolidine-2-carboxylic acid]",C (C represents <1 cm/ss×10^−6),500 to 1000 nM,100 to 200 nM,> 20 µM
"Cc1nc(N2C[C@@H](CC(=O)Nc3ccc4cn[nH]c4c3)C[C@H]2C(=O)O)c2oc3ccccc3c2n1 [Compound 30, (28.4R)-4-(2-((1H-indazol-6-yl)amino)-2-oxoethyl)-1-(2-methylbenzofuro[3,2-d]pyrimidin-4-yl)pyrrolidine-2-carboxylic acid]",C (C represents <1 cm/ss×10^−6),1000 to 5000 nM,100 to 200 nM,> 20 µM

# Other lines, results leading:
MDCK-MDR Permeability A→B [1],IC50 (cGAS; [3]),IC50 (cGAS; [4]),IC50 [2],SMILES
C (C represents <1 cm/ss×10^−6),200 to 500 nM,< 50 nM,> 20 µM,"Cc1nc(N2C[C@@H](CC(=O)Nc3ccc(-c4cccnn4)cc3)C[C@H]2C(=O)O)c2oc3ccccc3c2n1 [Compound 44, (2S,4R)-1-(2-methylbenzofuro[3,2-d]pyrimidin-4-yl)-4-(2-oxo-2-((4-(pyridazin-3-yl)phenyl)amino)ethyl)pyrrolidine-2-carboxylic acid]"
C (C represents <1 cm/ss×10^−6),1000 to 5000 nM,200 to 1000 nM,> 20 µM,"Cc1nc(N2C[C@@H](CC(=O)Nc3ccc(Cc4ccccn4)cc3)C[C@H]2C(=O)O)c2oc3ccccc3c2n1 [Compound 56, (2S,4R)-1-(2-methylbenzofuro[3,2-d]pyrimidin-4-yl)-4-(2-oxo-2-((4-(pyridin-2-ylmethyl)phenyl)amino)ethyl)pyrrolidine-2-carboxylic acid]"
C (C represents <1 cm/ss×10^−6),1000 to 5000 nM,100 to 200 nM,> 20 µM,"Cc1nc(N2C[C@@H](CC(=O)Nc3cccc(N4CCOCC4)c3)C[C@H]2C(=O)O)c2oc3ccccc3c2n1 [Compound 57, (2S,4R)-1-(2-methylbenzofuro[3,2-d]pyrimidin-4-yl)-4-(2-((3-morpholinophenyl)amino)-2-oxoethyl)pyrrolidine-2-carboxylic acid]"
C (C represents <1 cm/ss×10^−6),1000 to 5000 nM,200 to 1000 nM,> 20 µM,"Cc1nc(N2C[C@@H](CC(=O)Nc3cccc(N4CCC(O)CC4)c3)C[C@H]2C(=O)O)c2oc3ccccc3c2n1 [Compound 58, (2S,4R)-4-(2-((3-(4-hydroxypiperidin-1-yl)phenyl)amino)-2-oxoethyl)-1-(2-methylbenzofuro[3,2-d]pyrimidin-4-yl)pyrrolidine-2-carboxylic acid]"
